According to patent US9834542B2, “LXR modulators” (BRISTOL-MYERS SQUIBB COMPANY, priority 2013, dated 2017):

Target: T1, LXRβ (Homo sapiens, UniProt P55055)
T1 construct: Co-transfection expression plasmids, comprising full-length LXRα (pCMX-h LXRα[…] or LXRβ (pCMX-hLXRβ)); expressed in transfected cells; host or cells: CV-1 African Green Monkey Kidney Cells
T1 sequence (P55055 1-460): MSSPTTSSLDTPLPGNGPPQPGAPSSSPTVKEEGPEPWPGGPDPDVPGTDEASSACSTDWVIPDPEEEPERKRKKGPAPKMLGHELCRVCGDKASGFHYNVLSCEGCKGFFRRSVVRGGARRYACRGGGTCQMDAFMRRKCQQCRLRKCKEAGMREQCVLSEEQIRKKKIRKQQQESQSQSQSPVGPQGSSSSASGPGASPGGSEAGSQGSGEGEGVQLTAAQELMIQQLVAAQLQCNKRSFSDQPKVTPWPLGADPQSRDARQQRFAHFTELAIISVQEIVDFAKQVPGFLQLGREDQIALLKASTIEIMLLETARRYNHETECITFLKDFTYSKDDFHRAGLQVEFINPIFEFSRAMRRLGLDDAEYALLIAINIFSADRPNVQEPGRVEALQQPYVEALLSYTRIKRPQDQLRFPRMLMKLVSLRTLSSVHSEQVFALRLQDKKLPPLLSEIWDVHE
T1 sequence (P19793 1-462 partner): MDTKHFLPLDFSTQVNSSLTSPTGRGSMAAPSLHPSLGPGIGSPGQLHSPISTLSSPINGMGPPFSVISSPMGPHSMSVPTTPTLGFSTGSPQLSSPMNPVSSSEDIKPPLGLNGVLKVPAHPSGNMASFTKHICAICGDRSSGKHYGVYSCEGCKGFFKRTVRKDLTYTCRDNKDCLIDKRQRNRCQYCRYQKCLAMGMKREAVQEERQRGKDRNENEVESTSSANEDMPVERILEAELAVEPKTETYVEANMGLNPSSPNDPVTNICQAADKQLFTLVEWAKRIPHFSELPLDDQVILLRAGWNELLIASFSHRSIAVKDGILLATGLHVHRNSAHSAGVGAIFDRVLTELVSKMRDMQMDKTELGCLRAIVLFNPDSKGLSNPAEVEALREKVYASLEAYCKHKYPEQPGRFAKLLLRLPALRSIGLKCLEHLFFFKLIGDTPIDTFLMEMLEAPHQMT
Assay: Co-transfection assay (LXRE luciferase reporter), LXRβ
Assay type: cell-based
Details: for EC50: CV-1 cells transfected with pCMX-hLXRβ and LXREx1-Tk-Luciferase, 20 hours incubation; for Emax: LXRβ co-transfection, relative to high control 1-(2,4-difluorobenzyl)-2-oxo-6-(4-phenoxyphenyl)-4-(trifluoromethyl)-1,2-dihydropyridine-3-carbonitrile, read-out: % Efficacy
Method in brief: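 Cell-based LXRβ agonism measured as LXRE-luciferase induction in transiently transfected CV-1 cells after 20 h treatment. Potency is the curve-fit EC50; efficacy is expressed as percent of a full-agonist control's maximal response.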

SMILES | EC50 [nM] | Emax [%]
Cc1nc(C(F)(F)F)cn1-c1ccc(-c2cccc(S(C)(=O)=O)c2)cc1-c1nc(CC(C)O)oc1-c1ccc(OC(F)(F)F)cc1 (stereo not shown) [Example 536, 1-(4-(4-(2-methyl-4-(trifluoromethyl)-1H-imidazol-1-yl)-3′-(methylsulfonyl)-[1,1′-biphenyl]-3-yl)-5-(4-(trifluoromethoxy)phenyl)oxazol-2-yl)propan-2-ol] | 280 | 82
Cc1nc(-c2cc(-c3cc(F)c(CO)c(S(C)(=O)=O)c3)ccc2-n2cc(C(F)(F)F)nc2C)c(-c2ccc(Cl)nc2)o1 [Example 551, (3′-(5-(6-chloropyridin-3-yl)-2-methyloxazol-4-yl)-3-fluoro-4′-(2-methyl-4-(trifluoromethyl)-1H-imidazol-1-yl)-5-(methylsulfonyl)-[1,1′-biphenyl]-4-yl)methanol] | 522 | 79
Cc1nc(C(C)(F)F)cn1-c1ccc(-c2cc(F)c(CO)c(S(C)(=O)=O)c2)cc1-c1ocnc1-c1ccc(OC(F)(F)F)cc1 [Example 356, (4′-(4-(1,1-difluoroethyl)-2-methyl-1H-imidazol-1-yl)-3-fluoro-5-(methylsulfonyl)-3′-(4-(4-(trifluoromethoxy)phenyl)oxazol-5-yl)biphenyl-4-yl)methanol] | 599 | 79
Cc1nc(-c2cc(-c3cccc(S(C)(=O)=O)c3)ccc2-n2cc(C(F)(F)F)nc2C)c(-c2cccnc2Cl)o1 [Example 552, 5-(2-chloropyridin-3-yl)-2-methyl-4-(4-(2-methyl-4-(trifluoromethyl)-1H-imidazol-1-yl)-3′-(methylsulfonyl)-[1,1′-biphenyl]-3-yl)oxazole] | 913 | 82
Cc1nc(C(F)F)c(C)n1-c1ccc(-c2cccc(S(C)(=O)=O)c2)cc1-n1nncc1-c1ccc(OC(F)(F)F)cc1 [Example 232, 1-(4-(4-(difluoromethyl)-2,5-dimethyl-1H-imidazol-1-yl)-3′-(methylsulfonyl)-[1,1′-biphenyl]-3-yl)-5-(4-(trifluoromethoxy)phenyl)-1H-1,2,3-triazole] | 1970 | 74
Cc1nc(-c2cc(-c3cc(F)c(CO)c(S(C)(=O)=O)c3)ccc2-n2cc(C(F)(F)F)nc2C)c(-c2ccc(Cl)c(Cl)c2)o1 [Example 507, (3′-(5-(3,4-dichlorophenyl)-2-methyloxazol-4-yl)-3-fluoro-4′-(2-methyl-4-(trifluoromethyl)-1H-imidazol-1-yl)-5-(methylsulfonyl)biphenyl-4-yl)methanol] | 35 | 62
Cc1nc(C(F)(F)F)cn1-c1ccc(-c2ccc(CO)c(S(C)(=O)=O)c2)cc1-c1nc(CC(C)C)oc1-c1ccc(OC(F)(F)F)cc1 [Example 563, (3′-(2-isobutyl-5-(4-(trifluoromethoxy)phenyl)oxazol-4-yl)-4′-(2-methyl-4-(trifluoromethyl)-1H-imidazol-1-yl)-3-(methylsulfonyl)-[1,1′-biphenyl]-4-yl)methanol] | 13 | 70
Cc1nc(C(F)(F)F)cn1-c1ccc(-c2cccc(S(C)(=O)=O)c2)cc1-c1ocnc1-c1ccc(Cl)cc1 [Example 360, 4-(4-chlorophenyl)-5-{3′-(methylsulfonyl)-4-[2-methyl-4-(trifluoromethyl)-1H-imidazol-1-yl]biphenyl-3-yl}-1,3-oxazole] | 170 | 93
Cc1cc(-c2cc(-c3cccc(S(C)(=O)=O)c3)ccc2-n2cc(C(F)(F)F)nc2C)n(-c2ccc3c(c2)OC(F)(F)O3)n1 [Example 304, 1-(2,2-difluorobenzo[d][1,3]dioxol-5-yl)-3-methyl-5-(4-(2-methyl-4-(trifluoromethyl)-1H-imidazol-1-yl)-3′-(methylsulfonyl)-[1,1′-biphenyl]-3-yl)-1H-pyrazole] | 28 | 100
Cc1nc(-c2ccc(Cl)cc2Cl)c(-c2cc(-c3ccc(CO)c(S(C)(=O)=O)c3)ccc2-n2cc(C(F)(F)F)nc2C)o1 [Example 614, (3′-(4-(2,4-dichlorophenyl)-2-methyloxazol-5-yl)-4′-(2-methyl-4-(trifluoromethyl)-1H-imidazol-1-yl)-3-(methylsulfonyl)-[1,1′-biphenyl]-4-yl)methanol] | 47 | 103
Cc1nc(C(F)(F)F)cn1-c1ccc(-c2cccc(S(C)(=O)=O)c2)cc1-n1nncc1Cc1ccc(Cl)c(Cl)c1 [Example 115, 5-[(3,4-dichlorophenyl)methyl]-1-{3′-(methylsulfonyl)-4-[2-methyl-4-(trifluoromethyl)-1H-imidazol-1-yl]biphenyl-3-yl}-1H-1,2,3-triazole] | 920 | 79
Cc1nc(C(F)(F)F)cn1-c1ccc(-c2cccc(S(C)(=O)=O)c2)cc1-n1nncc1Cc1ccc(F)cc1 [Example 124, 5-[(4-fluorophenyl)methyl]-1-{3′-(methylsulfonyl)-4-[2-methyl-4-(trifluoromethyl)-1H-imidazol-1-yl]biphenyl-3-yl}-1H-1,2,3-triazole] | 1160 | 64
Cc1nc(-c2cc(-c3cc(F)c(CO)c(S(C)(=O)=O)c3)ccc2-n2cc(C(F)(F)F)nc2C)c(-c2cc(F)cc(Cl)c2)o1 [Example 450, (3′-(5-(3-chloro-5-fluorophenyl)-2-methyloxazol-4-yl)-3-fluoro-4′-(2-methyl-4-(trifluoromethyl)-1H-imidazol-1-yl)-5-(methylsulfonyl)biphenyl-4-yl)methanol] | 45 | 49
Cc1nc(-c2cc(-c3cccc(S(C)(=O)=O)c3)ccc2-n2cc(C(F)(F)F)nc2C)c(-c2ccc3c(c2)C(O)C(F)(F)O3)o1 (stereo not shown) [Example 368, 2,2-difluoro-5-(2-methyl-4-(4-(2-methyl-4-(trifluoromethyl)-1H-imidazol-1-yl)-3′-(methylsulfonyl)biphenyl-3-yl)oxazol-5-yl)-2,3-dihydrobenzofuran-3-ol] | 465 | 77
Cc1nc(C(F)(F)F)cn1-c1ccc(-c2cccc(S(C)(=O)=O)c2)cc1-n1nncc1-c1ccc(C(F)(F)F)nc1 [Example 80, 5-(1-{3′-(methylsulfonyl)-4-[2-methyl-4-(trifluoromethyl)-1H-imidazol-1-yl]biphenyl-3-yl}-1H-1,2,3-triazol-5-yl)-2-(trifluoromethyl)pyridine] | 2690 | 81
Cc1nc(-c2cc(-c3cccc(S(C)(=O)=O)c3)ccc2-n2cc(C(F)(F)F)nc2C)c(-c2ccc(OC(F)F)c(OC3CC3)c2)o1 [Example 386, 5-(3-cyclopropoxy-4-(difluoromethoxy)phenyl)-2-methyl-4-(4-(2-methyl-4-(trifluoromethyl)-1H-imidazol-1-yl)-3′-(methylsulfonyl)biphenyl-3-yl)oxazole] | 73 | 64
Cc1nc(-c2cc(-c3cc(F)c(CO)c(S(C)(=O)=O)c3)ccc2-n2cc(C(F)(F)F)nc2C)c(-c2cc(F)c(OC(F)F)c(F)c2)o1 [Example 457, (3′-(5-(4-(difluoromethoxy)-3,5-difluorophenyl)-2-methyloxazol-4-yl)-3-fluoro-4′-(2-methyl-4-(trifluoromethyl)-1H-imidazol-1-yl)-5-(methylsulfonyl)biphenyl-4-yl)methanol] | 58 | 76
Cc1ccc(-c2oc(C)nc2-c2cc(-c3cc(F)c(CO)c(S(C)(=O)=O)c3)ccc2-n2cc(C(F)(F)F)nc2C)cc1 [Example 492, (3-fluoro-4′-(2-methyl-4-(trifluoromethyl)-1H-imidazol-1-yl)-3′-(2-methyl-5-p-tolyloxazol-4-yl)-5-(methylsulfonyl)biphenyl-4-yl)methanol] | 34 | 64
Cc1nc(C(=O)NC(C)(C)C)cn1-c1ccc(-c2cccc(S(C)(=O)=O)c2)cc1-n1nncc1-c1ccc(OC(F)(F)F)cc1 [Example 152, N-(1,1-dimethylethyl)-2-methyl-1-[3′-(methylsulfonyl)-3-(5-{4-[(trifluoromethyl)oxy]phenyl}-1H-1,2,3-triazol-1-yl)biphenyl-4-yl]-1H-imidazole-4-carboxamide] | 1230 | 49
Cc1nc(-c2cc(-c3cccc(S(C)(=O)=O)c3)ccc2-n2cc(C(F)(F)F)nc2C)c(-c2ccc(N3CCCC3=O)cc2)o1 [Example 502, 1-(4-(2-methyl-4-(4-(2-methyl-4-(trifluoromethyl)-1H-imidazol-1-yl)-3′-(methylsulfonyl)biphenyl-3-yl)oxazol-5-yl)phenyl)pyrrolidin-2-one] | 1250 | 37
